Reference: publication PMC8026785, “The pharmacokinetics of [^18F]UCB-H revisited in the healthy non-human primate brain” (EJNMMI Research, 2021)

Key:
[1] = Arterial blood sampling and radiometabolite analysis after i.v. [^18F]UCB-H; type: in vivo, cynomolgus monkeys (Macaca fascicularis); conditions: for intact parent fraction: arterial blood
Protocol: (§1) All four non-human primates (NHP) underwent a 2-h (2 h) test and retest PET scan; two NHP underwent an additional 4-h (4 h) retest PET scan. Three NHP underwent one 4-h (4 h) displacement PET scan. Arterial blood sampling was performed during test and retest scans with PET imaging spaced by at least 3 weeks between each scan. To this end, the femoral artery opposite to the saphenous vein used for radioligand injection was cannulated. For the 2-h (2 h) scans, we collected in total 28 blood samples of 1 mL: 16 samples during the first 5 min followed by […] every 5 min and […] every 10 min. For the 4 h scans, we collected an additional 6 samples every 20 min during the last two hours (34 samples in total). Larger samples (2 – 3 mL) were collected at 5, 15, 30, 60, 90, 120 min (2 h) and at 180, 240 min (4 h) for metabolite analysis. Displacement of [^18F]UCB-H was done by intravenous (IV) administration 90 min after [^18F]UCB-H injection of a bolus of 30 mg/kg LEV, or of 80 µg/kg (≈250 nmol/kg) or 5 mg/kg (≈15 µmol/kg) of cold [^19F]-UCB-H. Full experimental design of all NHP is outlined in Additional file 1: Table 1.
Plasma was separated from whole-blood by centrifugation (5 min, 2054xg, 4 °C) and 50 µL of plasma and whole-blood were counted using a PET cross-calibrated gamma well counter (WIZARD^2, PerkinElmer, France) to obtain the whole-blood and plasma activity curves. All data were corrected for radioactive decay from the injection time. For the larger blood samples, 500 µL plasma was deproteinized with acetonitrile. The supernatant was injected in high-performance liquid chromatography, equipped with an Atlantis® T3 5 μm 4.6 × 150 mm column (Waters) and an Atlantis® T3 5 μm 3.9 × 5 mm pre-column (Waters), with an LB-513 radioactivity flow detector (Berthold, La Garenne Colombes, France, MX Z100 cell). The eluant was collected in intervals of 15 s (fraction collector III, Waters, France) and counted in the gamma well counter (WIZARD^2, PerkinElmer, France) to measure total activity. [^18F]UCB-H parent fraction was calculated as a percentage of the total radioactivity (metabolites and parent).
For each animal, a 2-exponential decay function was fitted to [^18F]UCB-H parent fraction, which was time multiplied with the plasma activity curve to obtain the metabolite-corrected arterial plasma input function (mcAIF) used for the kinetic modeling.

[2] = biological target: T1, SV2A (Macaca fascicularis, UniProt Q4R4X3); experiment: Displacement PET studies of [^18F]UCB-H; type: in vivo, cynomolgus monkeys (Macaca fascicularis); conditions: about half of total uptake displaceable
T1 construct: The current study evaluates [^18F]UCB-H pharmacokinetics in healthy NHPs; from tissue; host or cells: brain of living healthy cynomolgus monkeys (in vivo PET)
T1 sequence (Q4R4X3 whole entry): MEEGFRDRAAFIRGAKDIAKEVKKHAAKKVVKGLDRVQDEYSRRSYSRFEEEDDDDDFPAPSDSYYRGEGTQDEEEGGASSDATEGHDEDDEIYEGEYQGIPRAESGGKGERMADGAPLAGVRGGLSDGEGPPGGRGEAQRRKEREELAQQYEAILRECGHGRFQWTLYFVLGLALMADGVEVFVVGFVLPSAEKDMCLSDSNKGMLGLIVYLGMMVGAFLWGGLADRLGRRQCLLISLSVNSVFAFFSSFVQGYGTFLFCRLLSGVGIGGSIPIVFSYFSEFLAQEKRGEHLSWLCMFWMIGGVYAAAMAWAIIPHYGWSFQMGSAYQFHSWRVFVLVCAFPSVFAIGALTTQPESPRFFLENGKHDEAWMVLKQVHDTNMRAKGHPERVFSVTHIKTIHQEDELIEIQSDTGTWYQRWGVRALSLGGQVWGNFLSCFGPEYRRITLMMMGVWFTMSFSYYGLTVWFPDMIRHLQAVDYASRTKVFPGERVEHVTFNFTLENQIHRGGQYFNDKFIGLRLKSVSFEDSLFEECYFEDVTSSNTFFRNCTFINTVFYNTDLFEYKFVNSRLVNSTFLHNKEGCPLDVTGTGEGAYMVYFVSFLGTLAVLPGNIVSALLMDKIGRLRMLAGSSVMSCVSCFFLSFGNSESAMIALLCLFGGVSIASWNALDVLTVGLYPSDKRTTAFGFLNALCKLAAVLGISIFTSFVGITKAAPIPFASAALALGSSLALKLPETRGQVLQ
Protocol: as §1
Solvents and LEV (C8H14N2O2; MM 170.21 g/mol) were obtained at Sigma-Aldrich® (France), and [^19F]-UCB-H (C16H12F4N2O; MM 324.28 g/mol) was synthesised as previously described. Injectable solutions of [^19F]-UCB-H for displacement studies were prepared with a mixture of Tetrahydrofuran (THF), Médialipide® and glucose at 2.5% as previously described. LEV was dissolved in a glucose solution of 2.5% to reach a concentration of 90 mg/mL.
PET image analysis was performed using PMOD software version 3.8 (PMOD Technologies Ltd., Zurich, Suisse). After individual co-registration of PET-MR images, a cynomolgus atlas published by Ballanger and coworkers was normalized to PET images to extract time activity curves in different brain regions. Volumes of interest (VOI) were cerebral white matter (16.7 cm^3), striatum (0.24 cm^3), thalamus (0.89 cm^3), cerebellum (3.83 cm^3), frontal—(2.50 cm^3), parietal—(5.35 cm^3), and temporal (8.22 cm^3) cortex, and whole brain (72.2 cm^3) as a composite region of all regions in the atlas. [^18F]UCB-H pharmacokinetics were evaluated by analyzing the time activity curves of the test- and retest scans using 1- and 2-tissue compartment models (unconstrained and constrained with global K1/k2 coupled fit across all regions, further referred to as 2TCM and 2TCM-c), and Logan graphical analysis with a fixed t* at 60 min [33] using the arterial plasma input function corrected for radio-metabolites to derive the volume of distribution in each region. Percentage standard error (%SE) was estimated from the theoretical parameter covariance matrix. Only reliable estimates (%SE less than 25%) were included in the current analyses. For the three drug studies, percent displacement of the total activity in the whole brain was estimated relative to an average baseline constructed from the two 4 h baseline studies. Briefly, Standardized Uptake Value (SUV) time activity curves (TACs) were calculated for the two baseline and the three displacement studies. Then, each curve was normalized to the SUV at t = 90 min, corresponding to the timeframe immediately before the administration of the drugs in the displacement studies. Baseline curves were averaged and the percent displacement of total activity was calculated as (baseline-displacement)/baseline at a given time post drug administration (see “Results”).

intact parent fraction ([1]; 15 min after tracer injection): 37 ± 3.9%
intact parent fraction ([1]; 30 min after tracer injection): 29.5 ± 3.4%
intact parent fraction ([1]; 60 min after tracer injection): 19 ± 3.5%
intact parent fraction ([1]; 120 min after tracer injection): 14.6 ± 1.9%
intact parent fraction ([1]; 240 min after tracer injection): 4.4 ± 0.7%
plasma to whole-blood ratio ([1]; over the entire 120-min acquisition period): 0.90 ± 0.05
BPND expected from maximum displacement [2]: ~1.0
SMILES: O=C1C[C@H](c2cc(F)c(F)c(F)c2)CN1Cc1ccncc1[18F] [[^18F]UCB-H]
